Assay results from ChEMBL document CHEMBL1154323, “Bioactive scalaranes from the Thai sponge Hyrtios gumminae” (J Nat Prod, 2009).
Activity calls are given as the source filed them. No cut-off for these calls is given here.

Columns and labels:
Assay type in all cases: functional, cell-based
[1] = Cytotoxicity against human HuCCa1 cells; settings: HuCC-A1
KB [2] = test: Cytotoxicity against human KB cells
NCI-H69 [3] = test: Cytotoxicity against human adriamycin resistant H69 cells
MDA-MB-231 [4] = test: Cytotoxicity against human MDA-MB-231 cells
HeLa [5] = test: Cytotoxicity against human HeLa cells
T47D [6] = test: Cytotoxicity against human T47D cells
HuCC-A1 = test: Cytotoxicity against human HuCCa1 cells at >100 uM
MDA-MB-231 [7] = test: Cytotoxicity against human MDA-MB-231 cells >100 uM
HeLa [8] = test: Cytotoxicity against human HeLa cells >100 uM
KB [9] = test: Cytotoxicity against human KB cells >100 uM
T47D [10] = test: Cytotoxicity against human T47D cells >100 uM
NCI-H69 [11] = test: Cytotoxicity against human adriamycin resistant H69 cells >100 uM

Structure (SMILES)	IC50 [1] [µM]	IC50 (KB [2]) [µM]	IC50 (NCI-H69 [3]) [µM]	IC50 (MDA-MB-231 [4]) [µM]	IC50 (HeLa [5]) [µM]	IC50 (T47D [6]) [µM]	Activity (HuCC-A1)	Activity (MDA-MB-231 [7])	Activity (HeLa [8])	Activity (KB [9])	Activity (T47D [10])	Activity (NCI-H69 [11])
CC1(C)CCC[C@]2(C)[C@H]3C[C@@H](O)[C@]4(C)[C@H]5COC(=O)C5=CC[C@H]4[C@]3(C)CC[C@@H]12	42	7	57	5.9	23	5.2						
CC(C)CCC[C@@H](C)[C@H]1CC[C@H]2[C@@H]3CC=C4C[C@@H](O)CC[C@]4(C)[C@H]3CC[C@]12C							inactive	inactive	inactive	inactive	inactive	inactive
CC1(C)CCC[C@]2(C)[C@H]3C[C@@H](O)[C@]4(C)C5=C(CC[C@H]4[C@]3(C)CC[C@@H]12)COC5=O							inactive	inactive	inactive	inactive	inactive	inactive
COc1cc([C@@H]2c3cc4c(cc3[C@@H](O[C@@H]3O[C@@H]5CO[C@@H](C)O[C@H]5[C@H](O)[C@H]3O)[C@H]3COC(=O)[C@H]23)OCO4)cc(OC)c1O [ETOPOSIDE]	5.1	0.5	46	0.3	0.4	0.1						
CC1(C)CCC[C@]2(C)[C@H]3C[C@@H](O)[C@]4(C)C5=C(C(=O)O[C@H]5O)[C@H](O)C[C@H]4[C@]3(C)CC[C@@H]12 [HYRTIOLIDE]	57	12		26	22	34						
CC1(C)CCC[C@]2(C)[C@H]3C[C@](C)(C=O)[C@@H](C[C@H](O)c4ccoc4)[C@]3(C)CC[C@@H]12 [HYRTIOSAL]	9.1	7.8	31	5.4	18	9.1						
CC(=O)O[C@H]1C[C@H]2[C@]3(C)CC[C@H]4C(C)(C)CCC[C@]4(C)[C@H]3C[C@@H](O)[C@]2(C)c2cocc21 [SCALARAFURAN]	49	58	51	14	63	28						
CO[C@@H]1c2occc2[C@@H](O)C[C@H]2[C@]3(C)CC[C@H]4C(C)(C)CCC[C@]4(C)[C@H]3C[C@@]21C [SIMILAN A]	90	75	> 125	58	125	70						
